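Cultured in 96-well plates, cells were exposed to test compound for 48 hours across five concentrations. The concentration for 50% growth inhibition is given as GI50. TGI: concentration producing complete growth inhibition.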
Legend:
Assay in all cases: NCI-60 cell line screen, 48 h
TK-10 renal = test system: TK-10 renal
PC-3 prostate = test system: PC-3 prostate
SK-MEL-28 melanoma = test system: SK-MEL-28 melanoma
UACC-62 melanoma = test system: UACC-62 melanoma
ACHN renal = test system: ACHN renal
HCT-116 colon = test system: HCT-116 colon
DU-145 prostate = test system: DU-145 prostate
SK-MEL-5 melanoma = test system: SK-MEL-5 melanoma
HCT-15 colon = test system: HCT-15 colon
SN12C renal = test system: SN12C renal

| Compound | TGI (TK-10 renal) [µM] | TGI (PC-3 prostate) [µM] | TGI (SK-MEL-28 melanoma) [µM] | TGI (UACC-62 melanoma) [µM] | TGI (ACHN renal) [µM] | TGI (HCT-116 colon) [µM] | TGI (DU-145 prostate) [µM] | TGI (SK-MEL-5 melanoma) [µM] | TGI (HCT-15 colon) [µM] | TGI (SN12C renal) [µM] | GI50 (TK-10 renal) [µM] | GI50 (PC-3 prostate) [µM] | GI50 (SK-MEL-28 melanoma) [µM] | GI50 (UACC-62 melanoma) [µM] | GI50 (ACHN renal) [µM] | GI50 (HCT-116 colon) [µM] | GI50 (DU-145 prostate) [µM] | GI50 (SK-MEL-5 melanoma) [µM] | GI50 (HCT-15 colon) [µM] |
| --- | --- | --- | --- | --- | --- | --- | --- | --- | --- | --- | --- | --- | --- | --- | --- | --- | --- | --- | --- |
| O=C1/C(=C/c2ccc(O)cc2)CCc2ccccc21 | > 95.9 | 39.2 | 37 | 46.2 | 69.5 | 31.6 | 64.9 | 32.5 | 40.4 | 38.1 | – | – | – | – | – | – | – | – | – |
| C[C@]12CCC(=O)C=C1CC[C@@H]1[C@@H]2CC[C@]2(C)C(=O)/C(=C\c3ccccc3)C[C@@H]12 | > 100 | > 53.3 | > 81.4 | > 66.2 | > 100 | > 48.7 | > 100 | > 48.6 | > 100 | 31.9 | – | – | – | – | – | – | – | – | – |
| COC(=O)c1cc(/C=C2\Cc3cc4c(cc3C2=O)CCC4)cc2c1CCC2 | > 100 | > 100 | > 100 | > 100 | > 100 | > 100 | > 100 | – | > 100 | > 100 | – | – | – | – | – | – | – | – | – |
| COc1cc(C2SC(N)=Nc3c2c(C)nn3C(=O)Cc2ccccc2)ccc1O (stereo not drawn) | > 100 | > 100 | > 100 | > 100 | > 100 | > 100 | > 100 | > 100 | > 100 | > 100 | – | – | – | – | – | – | – | – | – |
| O=C(Nc1ccc(F)cc1)c1cc2ccc(O)cc2oc1=Nc1cccc(F)c1 | – | > 100 | > 100 | > 100 | > 100 | > 100 | > 100 | 35.6 | 92.2 | > 100 | – | – | – | – | – | – | – | – | – |
| c1ccc(-c2cc(-c3cc(-c4ccccc4)no3)on2)cc1 | > 100 | > 100 | > 100 | > 100 | > 100 | > 100 | > 100 | > 100 | > 100 | > 100 | – | – | – | – | – | – | – | – | – |
| Cc1nn(C(=O)c2ccncc2)c2c1C(c1ccccc1O)SC(N)=N2 (stereo not drawn) | > 10 | > 10 | > 10 | > 10 | > 10 | > 10 | > 10 | > 10 | > 10 | > 10 | – | – | – | – | – | – | – | – | – |
| O=C1C=Cc2c(I)sc(I)c21 | 68.5 | – | 44.6 | > 100 | > 100 | 33.1 | > 100 | > 100 | 34 | 45.7 | – | – | – | – | – | – | – | – | – |
| Cc1ccc(C(=O)Nc2ccc(CP(=O)(O)O)cc2)cc1NC(=O)Nc1cc(C(=O)Nc2ccc(CP(=O)(O)O)cc2)ccc1C | > 100 | > 100 | > 100 | > 100 | – | > 100 | > 100 | > 100 | > 100 | > 100 | – | – | – | – | – | – | – | – | – |
| Clc1ccc(N=Cc2cc3cc(Br)ccc3nc2Cl)cc1 | – | > 50 | > 50 | – | – | > 50 | > 50 | 45.2 | > 50 | > 50 | – | – | – | – | – | – | – | – | – |
| CCC1CCN=C(Cn2cc(C)c(=O)[nH]c2=O)N1 (stereo not drawn) | > 100 | > 100 | > 100 | > 100 | > 100 | > 100 | > 100 | > 100 | > 100 | > 100 | – | – | – | – | – | – | – | – | – |
| Cc1c(C)c(C)c(CSC(=N)N)c(C)c1C | 28.4 | 24.6 | 28.8 | 24.2 | 30.1 | 30 | 31.6 | 26.6 | 31.3 | 32.3 | – | – | – | – | – | – | – | – | – |
| N#CC(C#N)=Cc1ccc(-c2ccc(-c3nc4ccccc4s3)cc2)s1 | 47.4 | 23.1 | > 100 | 30.7 | 27.3 | 31.1 | 44.8 | 31.7 | 40 | – | 22.7 | 6.23 | 37.5 | 15.1 | 13.4 | 12.3 | 17.7 | 11.8 | 15.5 |
| CC1CC(=O)NC2CC1C2(C)C (stereo not drawn) | > 100 | – | > 100 | > 100 | > 100 | – | > 100 | > 100 | > 100 | > 100 | – | – | – | – | – | – | – | – | – |
| CCOC(=O)c1cc(C2(OC)CCN(Cc3ccccc3)C2=O)c(-c2cc(C)no2)[nH]1 (stereo not drawn) | > 100 | > 100 | > 100 | > 100 | > 100 | > 100 | > 100 | > 100 | > 100 | – | – | – | – | – | – | – | – | – | – |

From PubChem BioAssay (NCI)
